Series [1] can be described thus: Fire extinguishing agent evaluation, NFPA 2001 standard, modified cup burner. Conditions: cup burner modified to handle liquid compounds. The procedure: Omega-hydrofluoroalkyl ether compounds of this invention were evaluated as fire extinguishing agents using the National Fire Protection Association 2001 Fire Protection Standard, with a cup burner modified to handle liquid compounds. The results, shown below in Table D, indicate that the compounds could be effective agents for fire extinguishing, explosion suppression, and as flammable atmosphere inerting agents.

Series [2] in a line: Solubilities of selected hydrocarbon solvents in the ether hydride (precision cleaning). In kind it is physicochemical. As for the experimental part: A sample of this compound was evaluated for use in precision cleaning applications by measuring the solubilities of selected hydrocarbon solvents in the sample.
Series [3] is described as follows: Spot-free drying: water displacement from glass and stainless steel coupons. Conditions: 0.2% by weight C4F9OC2F4OCF2CONHC2H4OH dissolved in the ether, 45° C., ultrasonic agitation. The procedure:
A sample of the compound was also evaluated for use in spot-free drying applications such as taught in U.S. Pat. No. 5,125,978 (Flynn et al.). A water displacement composition was prepared by dissolving 0.2% by weight of C4F9OC2F4OCF2CONHC2H4OH in C4F9—O—C2F4H. The solution was heated to 45° C. in an ultrasonic bath. Using the procedure described in U.S. Pat. No. 5,125,978, test coupons of glass and stainless steel were wetted with water and subsequently immersed into this solution with ultrasonic agitation. All water was displaced within 60 seconds.

Series [4] can be described thus: Rinse agent in co-solvent cleaning of oil-contaminated aluminum coupon. To be noted: 50° C., about 60 seconds methyl decanoate then about 60 seconds rinse agent, aluminum coupon with light hydrocarbon oil. As for the experimental part: A sample of this compound was also evaluated for use as a rinse agent in co-solvent cleaning applications. (Such cleaning applications are taught, for example, in International Patent Publication No. WO 92/22678 (Petroferm Inc.). Organic esters such as methyl decanoate have found utility as solvating agents in two-phase cleaning applications using perfluorohexane as the carrier liquid and rinse agent.) Methyl decanoate and C4F9OC2F4H were placed in separate containers and heated to 50° C. in an ultrasonic bath. A 50 mm×25 mm×1.5 mm aluminum coupon was contaminated with 0.0831 g of a light hydrocarbon oil. The contaminated coupon was first immersed in the methyl decanoate for about 60 seconds and then immersed in the C4F9OC2F4H for about 60 seconds. The C4F9OC2F4H rinsed 100 percent (as determined by weight difference) of the oil and the methyl decanoate from the coupon.

Series [5] in a line: Comparative boiling points. The series is classed as physicochemical. The text has this: The unexpectedly low boiling points of compounds of the present invention render the compounds useful in processes involving temperature-sensitive substrates such as plastics. (For example, in vapor-phase cleaning, a substrate is rinsed in the condensing vapor of a boiling fluid, and in condensation heating, a substrate is heated by immersion in a boiling fluid.) In such applications, a lower-boiling fluid is preferred so as to avoid damage to the substrate. While it is known that boiling points can be reduced by selection of a compound having fewer carbon atoms, this may result in a boiling point reduction of 25° C. or more, in addition to adversely affecting other properties such as solvency.

Structures are written as SMILES.

`FC(F)C(F)(F)OC(F)(F)C(F)(F)C(F)(F)C(F)(F)F` [C4F9OC2F4H, C4F9—O—C2F4H] registered an Extinguishment concentration in series [1] of 5.6 vol. %. Moreover, the “Solubility of chloroform in the ether hydride” value in series [2] (Chloroform) was determined as 45 % by weight. Further, the “Solubility of ethylene glycol in the ether hydride” value in series [2] (Ethylene glycol) is on record as “less than 15 % by weight”. The “Solubility of hydrocarbon solvent in the ether hydride” value in series [2] (hexane, heptane, toluene, acetone, 2-butanone, 4-methyl-2-pentanone, ethyl acetate, methanol, ethanol, isopropanol, dimethyl formamide, trans-1,2-dichloroethylene, isopropyl ether) is “up to 50 % by weight”. The “Solubility of light hydrocarbon oil in the ether hydride” value in series [2] (light hydrocarbon oil) is given as “less than 0.05 % by weight”. In series [2] (o-Xylene), the “Solubility of o-xylene in the ether hydride” value came to 19 % by weight. In series [3], the “Time for all water to be displaced” value was not above 60 s. Also, the “Oil and methyl decanoate rinsed from the coupon (by weight difference)” value in series [4] is reported as 100%. Consider `FC(F)(F)C(F)(F)C(F)(F)C(F)(F)C(F)(F)C(F)(F)F` [perfluorohexane, reference compound], for which the “Oil and methyl decanoate rinsed from the coupon (by weight difference)” value in series [4] was 98.5%.

For the compound `FC(F)C(F)(F)C(F)(F)C(F)(F)C(F)(F)C(F)(F)C(F)(F)C(F)(F)C(F)(F)C(F)(F)F` [C9F19CF2H, reference compound], in series [5], the “Boiling Point” value turned out to be 154 °C. The same measure, in the same setting: the figure for `FC(F)C(F)(F)OC(F)(F)C(F)(F)C(F)(F)C(F)(F)C(F)(F)C(F)(F)C(F)(F)F` [C7F15OC2F4H, C7F15—O—C2F4H] is 131 °C. Regarding `FC(F)C(F)(F)C(F)(F)OC(F)(F)C(F)(F)C(F)F` [HC3F6OC3F6H], in series [1], the Extinguishment concentration was determined as 5.7 vol. %. With `FC(F)OC(F)(F)C(F)(F)C(F)(F)C(F)(F)C(F)(F)C(F)(F)C(F)(F)C(F)(F)C(F)(F)F` [C9F19OCF2H], the “Boiling Point” value in series [5] was 155 °C. On the same count and under the same terms, the figure for `FC(F)C(F)(F)C(F)(F)C(F)(F)OC(F)(F)C(F)(F)C(F)(F)C(F)(F)C(F)(F)C(F)(F)F` [C6F13OC4F8H, C6F13—O—C4F8—H] is 149 °C; for `FC(F)C(F)(F)C(F)(F)C(F)(F)C(F)(F)C(F)(F)C(F)(F)C(F)(F)C(F)(F)F` [C8F17CF2H, reference compound] it is 136 °C; for `FC(F)OC(F)(F)C(F)(F)C(F)(F)C(F)(F)C(F)(F)C(F)(F)C(F)(F)C(F)(F)F` [C8F17OCF2H, C8F17—O—CF2H] it is 139 °C. On the same count and under the same terms, the figure for `FC(F)C(F)(F)C(F)(F)C(F)(F)C(F)(F)OC(F)(F)C(F)(F)C(F)(F)C(F)(F)C(F)(F)F` [C5F11OC5F10H, C5F11—O—(CF2)5H] is 150 °C; for `FC(F)C(F)(F)OC(F)(F)C(F)(F)C(F)(F)C(F)(F)C(F)(F)C(F)(F)C(F)(F)C(F)(F)F` [C8F17OC2F4H, C8F17—O—C2F4H] it is 148 °C.

Source of the values: US6863211B2, “Omega-hydrofluoroalkyl ethers, precursor carboxylic acids and derivatives thereof, and their preparation and application” (3M Innovative Properties Company, priority 1994, dated 2005).
